Results: patent publication US9161502B2, “Brassica juncea lines with a canola fatty acid profile” (PIONEER HI BRED INTERNATIONAL INC, priority 2007, dated 2015)

Tested on: B. juncea seed
Assay: EMS kill curves: germination of B. juncea seed treated with various concentrations of EMS
Format: in vivo, Brassica juncea
Conditions: for % germination: seeds soaked 18 hours, germination box 25° C., 7 days
Protocol: A bulk population (99SJ-1309) was created for this experiment from 8 different low glucosinolate and low erucic acid B. juncea breeding lines. These lines were selected for a range of quality and agronomic traits such as oil content and seed size. 500 seeds of the bulk population were used for each treatment of the following experiment. The seeds were soaked in various concentrations EMS for 18 hours and then washed 3 times. A sub-sample of 100 seeds was placed in a germination box at 25° C. for 7 days. After 7 days, the number of seeds that germinated and produced a healthy radicle was calculated. All seeds that were treated with EMS took at least 2 days longer to germinate than controls.
EMS treatment of seed affected the germination rate (FIG. 1, Table 2 and Table 3). […] This experiment was not replicated. Its purpose was to evaluate the effect of EMS on seed germination rate. The first experiment was designed to test a broad range of EMS application rates and the second experiment was to reduce the range of EMS treatment to develop the desirable mutations (Table 3).

Question: For CCOS(C)(=O)=O [EMS, ethyl methane sulfonate], which “germination rate versus expectation” value (0.36% EMS treatment rate) is on record?
Answer: much lower germination rate than expected

Question: And the germination rate (0.48% EMS, text summary of Experiment 1)?
Answer: approximately 50%

Question: What about the “delay of germination versus controls” value (all seeds treated with EMS) of the same compound?
Answer: at least 2 days

Question: What about the germination rates (highest concentrations of EMS) of the same compound?
Answer: less than 50%

Question: And the “% germination” value (kill curve #1 (Treatment 1), EMS 0.16% w/v)?
Answer: 93%

Question: What about the “% germination” value (kill curve #1 (Treatment 1), EMS 0.33% w/v) of the same compound?
Answer: 90%

Question: What about the “% germination” value (kill curve #1 (Treatment 1), EMS 0.48% w/v) of the same compound?
Answer: 61%

Question: What about the “% germination” value (kill curve #1 (Treatment 1), EMS 0.64% w/v) of the same compound?
Answer: 39%

Question: And the “% germination” value (kill curve #2 (Treatment 2), EMS 0.36% w/v)?
Answer: 57%

Question: What about the “% germination” value (kill curve #2 (Treatment 2), EMS 0.42% w/v) of the same compound?
Answer: 68%

Question: And the “% germination” value (kill curve #2 (Treatment 2), EMS 0.48% w/v)?
Answer: 43%

Question: What about the “% germination” value (kill curve #2 (Treatment 2), EMS 0.56% w/v) of the same compound?
Answer: 46%

Question: What about the “effect on germination rate” value (lowest concentrations (0.16 and 0.33%)) of the same compound?
Answer: little effect on germination rate
